Test [1] addresses T1, Acetylcholinesterase (Electrophorus electricus, UniProt O42275).
Description: Inhibition of Electrophorus electricus AChE using acetylthiocholine iodide as substrate preincubated for 10 mins before substrate addition by Ellman's method in presence of bovine serum albumin
The target of test [2] is T2, Cholinesterase (Equus caballus, UniProt P81908).
Description: Inhibition of equine serum BuChE using butyrylthiocholine iodide as substrate preincubated for 10 mins before substrate addition by Ellman's method in presence of bovine serum albumin
Test [3] deals with T2, Cholinesterase. The test is described as follows: Inhibition of equine serum BuChE using butyrylthiocholine iodide as substrate preincubated for 10 mins before substrate addition by Ellman's method.
Test [4] has as its target T3, Acetylcholinesterase (Homo sapiens, UniProt P22303). The test can be described thus: Inhibition of human recombinant AChE using acetylthiocholine as substrate by Ellman's assay. (In general: DTNB colorimetry detects thiols as they appear.)
Test [5] deals with T4, Cholinesterase (Homo sapiens, UniProt P06276). The test can be described thus: Inhibition of human serum BuChE using butyrylthiocholine as substrate by Ellman's assay.
Test [6] has as its target T1, Acetylcholinesterase. The source holds these as a separate data set.
Description: Inhibition of Electrophorus electricus AChE using acetylthiocholine iodide as substrate preincubated for 10 mins before substrate addition by Ellman's method
The next test is filed under the species Homo sapiens. The test can be described thus: Selectivity ratio of IC50 for human […].
Test [7] has as its target T1, Acetylcholinesterase. The test can be described thus: Mixed-type inhibition of Electrophorus electricus AChE assessed as hydrolysis of acetylthiocholine by Lineweaver-Burk plot analysis.
Test [8] concerns SH-SY5Y. The test is described as follows: Neuroprotective activity against amyloid beta(25-32)-induced toxicity in human SH-SY5Y cells assessed as reduction in cell viability at 0.3 uM preincubated for 24 hrs measured after 24 hrs by MTT assay. It is filed as functional.
For test [9], the system named is SH-SY5Y. The test is described as follows: Neuroprotective activity against amyloid beta(25-32)-induced toxicity in human SH-SY5Y cells assessed as reduction in cell viability at 1 uM preincubated for 24 hrs measured after 24 hrs by MTT assay. It is filed as functional. For orientation: Tetrazolium assays rely on reduction of a dye to a coloured formazan, in cell work by metabolically active cells.

Test [10] concerns SH-SY5Y. The test is described as follows: Neuroprotective activity against amyloid beta(25-32)-induced toxicity in human SH-SY5Y cells assessed as reduction in cell viability at 3 uM preincubated for 24 hrs measured after 24 hrs by MTT assay. In kind it is functional.
In test [11] the target is T3, Acetylcholinesterase. The test can be described thus: Inhibition of human recombinant AChE using acetylthiocholine as substrate by Ellman's assay in presence of bovine serum albumin.
In test [12] the target is T4, Cholinesterase. The test can be described thus: Inhibition of human serum BuChE using butyrylthiocholine as substrate by Ellman's assay in presence of bovine serum albumin.

Where only a bound is given, the exact number is not on record here.

T3 sequence (P22303 whole entry): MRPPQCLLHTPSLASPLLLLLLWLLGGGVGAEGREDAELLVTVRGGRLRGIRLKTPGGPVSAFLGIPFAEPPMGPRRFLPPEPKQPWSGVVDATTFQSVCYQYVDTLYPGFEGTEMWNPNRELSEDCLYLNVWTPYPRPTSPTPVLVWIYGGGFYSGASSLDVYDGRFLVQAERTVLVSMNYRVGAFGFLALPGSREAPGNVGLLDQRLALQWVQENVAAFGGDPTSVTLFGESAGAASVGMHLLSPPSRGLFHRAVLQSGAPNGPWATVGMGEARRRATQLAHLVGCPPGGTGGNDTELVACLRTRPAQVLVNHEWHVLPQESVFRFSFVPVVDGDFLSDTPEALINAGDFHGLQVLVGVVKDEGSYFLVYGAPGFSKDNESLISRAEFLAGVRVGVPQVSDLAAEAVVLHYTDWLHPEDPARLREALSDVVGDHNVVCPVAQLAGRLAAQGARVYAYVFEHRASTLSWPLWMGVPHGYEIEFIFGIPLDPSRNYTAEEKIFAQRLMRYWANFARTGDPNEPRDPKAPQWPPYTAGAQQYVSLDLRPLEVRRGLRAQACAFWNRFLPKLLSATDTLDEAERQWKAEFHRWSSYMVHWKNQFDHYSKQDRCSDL
T1 sequence (O42275 whole entry): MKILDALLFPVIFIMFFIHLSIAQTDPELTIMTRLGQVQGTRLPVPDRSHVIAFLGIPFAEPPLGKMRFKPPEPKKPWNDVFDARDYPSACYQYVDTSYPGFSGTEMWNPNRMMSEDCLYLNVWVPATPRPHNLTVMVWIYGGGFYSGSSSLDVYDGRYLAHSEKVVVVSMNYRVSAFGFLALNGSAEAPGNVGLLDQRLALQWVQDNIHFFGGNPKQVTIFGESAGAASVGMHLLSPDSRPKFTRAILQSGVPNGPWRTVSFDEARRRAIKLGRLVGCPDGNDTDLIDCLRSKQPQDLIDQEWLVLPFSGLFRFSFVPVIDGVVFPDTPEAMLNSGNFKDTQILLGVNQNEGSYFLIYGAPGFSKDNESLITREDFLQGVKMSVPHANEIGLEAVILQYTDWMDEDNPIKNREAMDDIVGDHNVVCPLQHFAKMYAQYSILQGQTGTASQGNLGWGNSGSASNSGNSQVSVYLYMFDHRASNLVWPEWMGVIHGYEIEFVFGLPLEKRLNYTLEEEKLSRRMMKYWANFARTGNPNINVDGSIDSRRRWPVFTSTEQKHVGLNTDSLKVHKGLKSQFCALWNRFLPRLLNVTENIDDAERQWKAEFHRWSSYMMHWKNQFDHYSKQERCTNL
T4 sequence (P06276 whole entry): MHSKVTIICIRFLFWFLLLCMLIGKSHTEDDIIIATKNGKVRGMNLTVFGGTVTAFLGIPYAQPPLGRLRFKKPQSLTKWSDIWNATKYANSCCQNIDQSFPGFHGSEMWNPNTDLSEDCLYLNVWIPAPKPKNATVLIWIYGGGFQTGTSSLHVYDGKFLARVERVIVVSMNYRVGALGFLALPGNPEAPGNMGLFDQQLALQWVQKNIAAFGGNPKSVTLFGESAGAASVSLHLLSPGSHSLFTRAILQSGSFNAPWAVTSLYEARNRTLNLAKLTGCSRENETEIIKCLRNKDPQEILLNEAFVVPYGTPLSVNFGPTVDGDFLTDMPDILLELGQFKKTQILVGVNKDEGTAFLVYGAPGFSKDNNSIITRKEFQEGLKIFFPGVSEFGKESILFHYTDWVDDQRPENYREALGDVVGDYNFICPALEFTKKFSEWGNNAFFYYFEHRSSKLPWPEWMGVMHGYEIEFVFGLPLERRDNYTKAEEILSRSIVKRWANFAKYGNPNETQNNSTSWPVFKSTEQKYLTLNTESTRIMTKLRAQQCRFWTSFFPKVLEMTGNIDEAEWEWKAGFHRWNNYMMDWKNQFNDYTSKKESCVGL
T2 sequence (P81908 whole entry): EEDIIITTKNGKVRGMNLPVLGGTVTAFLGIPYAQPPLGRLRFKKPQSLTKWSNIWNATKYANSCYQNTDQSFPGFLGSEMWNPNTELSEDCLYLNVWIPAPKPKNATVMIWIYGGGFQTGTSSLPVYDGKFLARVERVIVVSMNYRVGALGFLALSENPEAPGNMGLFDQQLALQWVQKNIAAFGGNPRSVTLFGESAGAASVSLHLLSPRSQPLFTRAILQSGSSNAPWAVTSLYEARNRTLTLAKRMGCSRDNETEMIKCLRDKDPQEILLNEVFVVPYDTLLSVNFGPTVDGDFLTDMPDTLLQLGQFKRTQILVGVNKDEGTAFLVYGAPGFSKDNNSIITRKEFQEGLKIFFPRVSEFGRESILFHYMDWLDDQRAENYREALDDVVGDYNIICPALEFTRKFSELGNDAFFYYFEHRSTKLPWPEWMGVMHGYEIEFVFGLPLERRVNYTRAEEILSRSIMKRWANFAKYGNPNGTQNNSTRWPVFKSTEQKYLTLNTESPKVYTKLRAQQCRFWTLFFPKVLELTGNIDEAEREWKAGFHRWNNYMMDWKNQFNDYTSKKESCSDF

For the compound `Nc1c2c(nc3oc(-c4ccc(Cl)cc4)cc13)CCCCC2`, the values for the IC50 against Acetylcholinesterase [1] and against Cholinesterase [2] were more than 100 µM and 43 µM, respectively.
On to `Cc1ccc(-c2cc3c(N)c4c(nc3o2)CCCC4)cc1`, for which the IC50 was 2.9 µM on Cholinesterase [3], more than 100 µM at Acetylcholinesterase [4], 119 µM against Cholinesterase [5] and more than 100 µM at Acetylcholinesterase [6].
As to `Nc1c2c(nc3c1cc(-c1ccccc1)n3-c1ccccc1)CCCC2`, the IC50 amounted to 0.074 µM against Cholinesterase [3], 45.5 µM on Acetylcholinesterase [4], 8.57 µM at Cholinesterase [5] and 0.61 µM on Acetylcholinesterase [6]. In addition, the Ratio IC50 in the test listed under Homo sapiens stood at 5. Further, the Ki on Acetylcholinesterase [7] stood at 0.621 µM. Moreover, the figures for the Activity in the test on SH-SY5Y [8], with SH-SY5Y [9] and with SH-SY5Y [10] were 11.4%, 19% and 23.7%, respectively.
Turning to `Nc1c2c(nc3oc(-c4ccccc4)cc13)CCCC2`, the IC50 at Cholinesterase [3] is 3.6 µM; on Acetylcholinesterase [4] it was more than 100 µM; against Cholinesterase [5] it was 3.78 µM; against Acetylcholinesterase [6], more than 100 µM.
Regarding `N#Cc1c(-c2ccc(Cl)cc2)oc2nc3c(c(N)c12)CCCC3`, the IC50 is more than 100 µM at Acetylcholinesterase [11], more than 100 µM at Cholinesterase [12], more than 100 µM against Acetylcholinesterase [1] and 32.4 µM against Cholinesterase [2].
With `Nc1c2c(nc3c1cc(-c1ccc(Cl)cc1)n3-c1ccccc1)CCCC2`, the figures for the IC50 against Acetylcholinesterase [1] and at Cholinesterase [2] were 24 µM and 15 µM, respectively.
As for `Nc1c2c(nc3c1cc(-c1ccccc1)n3-c1ccccc1)CCCCC2`, the IC50 on Acetylcholinesterase [1] was more than 30 µM; on Cholinesterase [2], 1.1 µM.
As to `Nc1c2c(nc3oc(-c4ccc(Cl)cc4)cc13)CCCC2`, the IC50 is 23 µM against Cholinesterase [3], more than 100 µM on Acetylcholinesterase [4], 26.1 µM at Cholinesterase [5] and more than 100 µM at Acetylcholinesterase [6].
Regarding `Nc1c2c(nc3oc(-c4ccccc4)cc13)CCCCC2`, the IC50 is 6 µM on Cholinesterase [3] and more than 100 µM against Acetylcholinesterase [6].
In the case of `Cc1ccc(-c2cc3c(N)c4c(nc3o2)CCCCC4)cc1`, the figures for the IC50 on Acetylcholinesterase [1] and on Cholinesterase [2] were more than 30 µM and 13 µM, respectively.

A word on the IC50: it is the concentration at which inhibition is half-maximal. In general, Ki refers to a measure of affinity in units of concentration, obtained from inhibition or displacement.

The values above are taken from ChEMBL document CHEMBL1914445 (Eur J Med Chem, 2011).
